Reference: patent US9248119B2, “Modified release dosage forms of xanthine oxidoreductase inhibitor or xanthine oxidase inhibitors” (Takeda Pharmaceuticals U.S.A., Inc., priority 2010, dated 2016)
Where two headings read alike, the source gives them in different places.

What was measured:
[1] = Bioavailability of febuxostat released in various locations of the gastrointestinal tract (site of absorption study); assay type: in vivo, human; conditions: humans
Description: Subjects all received regimens in a crossover fashion according to a randomization schedule. Extra periods (up to 2 per subject) were added where subject dose release issues required repeating a regimen. There was a washout interval of at least 7 days between the dose in a period and the next dose in the subsequent period.
The method utilizes protein precipitation with acetonitrile of a 100-μL aliquot of plasma, with a lower limit of detection of 10.0 ng/mL.
Pharmacokinetic parameters for febuxostat were estimated using standard noncompartmental methods. Calculations were performed using the WinNonlin Pro Version 5.2 (Mountain View, Calif., USA). The descriptive statistics for pharmacokinetic parameter estimates were computed. […] The subjects who had improper capsule release were allowed to repeat up to two extra periods after their scheduled sequence had ended. For ANOVA purposes, the missing or incomplete data from the periods with improper capsule release was replaced by the data from the corresponding repeated periods using the originally planned period for that regimen.

[2] = Phase 1 single-dose 5-way crossover study of four extended release and one immediate release febuxostat formulation; assay type: in vivo, human; conditions: all subjects, all formulations
Excerpt: This examples describes the results of a phase 1, single-center, open-label, randomized, 5-way crossover study. Thirty-five adult male and female subjects aged 18 to 55 years, inclusive, in good health, were selected to participate in this study.

albumin = target: T1, albumin (Homo sapiens, UniProt P02768); test: Binding to albumin in the blood; assay type: in vitro ADME
T1 construct: from tissue; host or cells: blood / plasma
T1 sequence (P02768 25-609): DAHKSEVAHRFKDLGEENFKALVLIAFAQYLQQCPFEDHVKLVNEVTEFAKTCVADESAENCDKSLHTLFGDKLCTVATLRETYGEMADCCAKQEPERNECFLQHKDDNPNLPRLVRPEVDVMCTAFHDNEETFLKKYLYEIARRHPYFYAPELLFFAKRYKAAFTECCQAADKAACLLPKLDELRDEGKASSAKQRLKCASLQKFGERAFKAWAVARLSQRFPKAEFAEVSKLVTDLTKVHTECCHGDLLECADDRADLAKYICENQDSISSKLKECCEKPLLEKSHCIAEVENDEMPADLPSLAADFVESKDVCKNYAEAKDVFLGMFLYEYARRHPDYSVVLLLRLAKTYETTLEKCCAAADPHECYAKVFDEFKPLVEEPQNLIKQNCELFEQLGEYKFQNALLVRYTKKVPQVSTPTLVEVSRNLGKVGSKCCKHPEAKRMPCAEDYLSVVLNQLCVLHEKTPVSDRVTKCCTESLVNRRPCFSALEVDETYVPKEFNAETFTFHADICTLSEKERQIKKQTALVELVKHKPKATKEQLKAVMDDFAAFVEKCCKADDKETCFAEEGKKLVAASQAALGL

uric acid = test: Pharmacodynamics in Phase 1 dose escalation study: uric acid levels; assay type: in vivo, human
Description: Samples were analyzed by high performance liquid chromatography.

xanthine oxidase [3] = target: T2, xanthine oxidase (Homo sapiens, UniProt P47989)
T2 sequence (P47989 whole entry): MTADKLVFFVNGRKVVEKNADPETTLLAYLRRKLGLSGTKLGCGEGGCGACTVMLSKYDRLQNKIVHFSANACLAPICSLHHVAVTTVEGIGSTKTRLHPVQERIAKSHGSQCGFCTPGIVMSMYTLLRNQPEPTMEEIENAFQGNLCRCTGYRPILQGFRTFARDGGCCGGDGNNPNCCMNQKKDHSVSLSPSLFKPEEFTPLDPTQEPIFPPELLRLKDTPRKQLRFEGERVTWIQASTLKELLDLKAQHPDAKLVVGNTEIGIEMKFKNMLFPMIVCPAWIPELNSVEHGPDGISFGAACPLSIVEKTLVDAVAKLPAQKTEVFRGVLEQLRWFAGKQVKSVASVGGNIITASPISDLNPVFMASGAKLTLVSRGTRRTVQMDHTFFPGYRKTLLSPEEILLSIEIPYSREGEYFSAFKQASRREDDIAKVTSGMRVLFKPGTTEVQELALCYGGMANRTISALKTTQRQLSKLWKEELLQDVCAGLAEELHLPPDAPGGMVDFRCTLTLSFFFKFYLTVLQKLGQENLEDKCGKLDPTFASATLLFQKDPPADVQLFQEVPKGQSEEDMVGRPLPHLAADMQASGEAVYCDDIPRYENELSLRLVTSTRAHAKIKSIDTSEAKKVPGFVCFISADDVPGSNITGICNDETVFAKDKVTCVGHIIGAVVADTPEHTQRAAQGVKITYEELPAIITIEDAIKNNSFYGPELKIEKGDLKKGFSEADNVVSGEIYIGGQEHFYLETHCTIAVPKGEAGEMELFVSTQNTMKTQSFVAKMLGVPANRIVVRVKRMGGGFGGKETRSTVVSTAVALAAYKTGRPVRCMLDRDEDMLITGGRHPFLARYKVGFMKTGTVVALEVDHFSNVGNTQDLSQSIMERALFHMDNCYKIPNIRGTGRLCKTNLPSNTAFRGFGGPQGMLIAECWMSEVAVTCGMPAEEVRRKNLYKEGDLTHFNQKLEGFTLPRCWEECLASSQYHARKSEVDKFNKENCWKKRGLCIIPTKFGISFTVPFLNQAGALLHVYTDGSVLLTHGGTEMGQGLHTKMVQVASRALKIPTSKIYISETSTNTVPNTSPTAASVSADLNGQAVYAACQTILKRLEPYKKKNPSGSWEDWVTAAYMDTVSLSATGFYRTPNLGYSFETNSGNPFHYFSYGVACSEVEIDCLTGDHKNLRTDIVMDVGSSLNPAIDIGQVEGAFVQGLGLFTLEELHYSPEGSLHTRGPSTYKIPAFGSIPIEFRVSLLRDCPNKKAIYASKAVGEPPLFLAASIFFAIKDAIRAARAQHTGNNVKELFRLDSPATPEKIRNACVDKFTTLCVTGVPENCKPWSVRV

xanthine oxidase [4] = target: T2, xanthine oxidase; remark: listed apart in the source
[5] = cited from earlier work; for fu (free fraction in plasma): in %
clinical = conditions: human, plasma, po
[6] = normal patients, 14C, nominal 1 μg/mL
[7] = patients with severe renal impairment

## Cc1nc(-c2ccc(OCC(C)C)c(C#N)c2)sc1C(=O)O [Febuxostat, 2-[3-cyano-4-(2-methylpropoxy)phenyl]-4-methylthiazole-5-carboxylic acid]
[1]
  absorption in the colon compared to immediate release, proximal intestine and distal intestine: approximately 40%
[2]
  absorption lag-time after oral dosing: no absorption lag-time
albumin
  bound to albumin in the blood: ~99.3%
Uric acid; 30 mg twice daily compared with once daily 120 mg
  lowering uric acid levels: as effective
Uric acid; IR, once a day, as little as 10 mg, healthy subjects
  serum uric acid concentrations: lowers concentrations of uric acid
Uric acid; in vivo febuxostat concentrations at or above 100 ng/mL (0.1 μg/mL)
  inhibition of uric acid levels: ≥ 80%
Xanthine oxidase [3]; IR 10 mg QD, 8 hours post dose
  Percentage Inhibition of xanthine oxidase: 43.6%
Xanthine oxidase [3]; IR 10 mg QD, 12 hours post dose
  Percentage Inhibition of xanthine oxidase: 27.3%
Xanthine oxidase [3]; IR 10 mg QD, 16 hours post dose
  Percentage Inhibition of xanthine oxidase: 0%
Xanthine oxidase [3]; IR 10 mg QD, 24 hours post dose
  Percentage Inhibition of xanthine oxidase: 0%
Xanthine oxidase [3]; IR 20 mg QD, 8 hours post dose
  Percentage Inhibition of xanthine oxidase: 55.9%
Xanthine oxidase [3]; IR 20 mg QD, 12 hours post dose
  Percentage Inhibition of xanthine oxidase: 54.0%
Xanthine oxidase [3]; IR 20 mg QD, 16 hours post dose
  Percentage Inhibition of xanthine oxidase: 42.8%
Xanthine oxidase [3]; IR 20 mg QD, 24 hours post dose
  Percentage Inhibition of xanthine oxidase: 0%
Xanthine oxidase [3]; IR 30 mg QD, 8 hours post dose
  Percentage Inhibition of xanthine oxidase: 62.3%
Xanthine oxidase [3]; IR 30 mg QD, 12 hours post dose
  Percentage Inhibition of xanthine oxidase: 52.5%
Xanthine oxidase [3]; IR 30 mg QD, 16 hours post dose
  Percentage Inhibition of xanthine oxidase: 37.1%
Xanthine oxidase [3]; IR 30 mg QD, 24 hours post dose
  Percentage Inhibition of xanthine oxidase: 35.9%
Xanthine oxidase [3]; IR 40 mg QD, 8 hours post dose
  Percentage Inhibition of xanthine oxidase: 69.8%
Xanthine oxidase [3]; IR 40 mg QD, 12 hours post dose
  Percentage Inhibition of xanthine oxidase: 55.9%
Xanthine oxidase [3]; IR 40 mg QD, 16 hours post dose
  Percentage Inhibition of xanthine oxidase: 43.3%
Xanthine oxidase [3]; IR 40 mg QD, 24 hours post dose
  Percentage Inhibition of xanthine oxidase: 36.2%
Xanthine oxidase [3]; IR 50 mg QD, 8 hours post dose
  Percentage Inhibition of xanthine oxidase: 77.9%
Xanthine oxidase [3]; IR 50 mg QD, 12 hours post dose
  Percentage Inhibition of xanthine oxidase: 64.9%
Xanthine oxidase [3]; IR 50 mg QD, 16 hours post dose
  Percentage Inhibition of xanthine oxidase: 49.1%
Xanthine oxidase [3]; IR 50 mg QD, 24 hours post dose
  Percentage Inhibition of xanthine oxidase: 38.5%
Xanthine oxidase [3]; IR 70 mg QD, 8 hours post dose
  Percentage Inhibition of xanthine oxidase: 81.2%
Xanthine oxidase [3]; IR 70 mg QD, 12 hours post dose
  Percentage Inhibition of xanthine oxidase: 66.3%
Xanthine oxidase [3]; IR 70 mg QD, 16 hours post dose
  Percentage Inhibition of xanthine oxidase: 56.0%
Xanthine oxidase [3]; IR 70 mg QD, 24 hours post dose
  Percentage Inhibition of xanthine oxidase: 35.3%
Xanthine oxidase [3]; IR 90 mg QD, 8 hours post dose
  Percentage Inhibition of xanthine oxidase: 85.6%
Xanthine oxidase [3]; IR 90 mg QD, 12 hours post dose
  Percentage Inhibition of xanthine oxidase: 77.7%
Xanthine oxidase [3]; IR 90 mg QD, 16 hours post dose
  Percentage Inhibition of xanthine oxidase: 68.1%
Xanthine oxidase [3]; IR 90 mg QD, 24 hours post dose
  Percentage Inhibition of xanthine oxidase: 50.3%
Xanthine oxidase [3]; IR 120 mg QD, 8 hours post dose
  Percentage Inhibition of xanthine oxidase: 89.0%
Xanthine oxidase [3]; IR 120 mg QD, 12 hours post dose
  Percentage Inhibition of xanthine oxidase: 82.6%
Xanthine oxidase [3]; IR 120 mg QD, 16 hours post dose
  Percentage Inhibition of xanthine oxidase: 75.8%
Xanthine oxidase [3]; IR 120 mg QD, 24 hours post dose
  Percentage Inhibition of xanthine oxidase: 60.5%
Xanthine oxidase [3]; IR 120 mg, Table 2
  time for which at least 80% inhibition of xanthine oxidase is provided: ≤ 16 h
Xanthine oxidase [3]; IR 160 mg QD, 8 hours post dose
  Percentage Inhibition of xanthine oxidase: 93.9%
Xanthine oxidase [3]; IR 160 mg QD, 12 hours post dose
  Percentage Inhibition of xanthine oxidase: 90.9%
Xanthine oxidase [3]; IR 160 mg QD, 16 hours post dose
  Percentage Inhibition of xanthine oxidase: 81.4%
Xanthine oxidase [3]; IR 160 mg QD, 24 hours post dose
  Percentage Inhibition of xanthine oxidase: 67.6%
Xanthine oxidase [3]; IR 180 mg QD, 8 hours post dose
  Percentage Inhibition of xanthine oxidase: 94.7%
Xanthine oxidase [3]; IR 180 mg QD, 12 hours post dose
  Percentage Inhibition of xanthine oxidase: 91.7%
Xanthine oxidase [3]; IR 180 mg QD, 16 hours post dose
  Percentage Inhibition of xanthine oxidase: 81.5%
Xanthine oxidase [3]; IR 180 mg QD, 24 hours post dose
  Percentage Inhibition of xanthine oxidase: 68.4%
Xanthine oxidase [3]; IR 240 mg QD, 8 hours post dose
  Percentage Inhibition of xanthine oxidase: 95.7%
Xanthine oxidase [3]; IR 240 mg QD, 12 hours post dose
  Percentage Inhibition of xanthine oxidase: 91.4%
Xanthine oxidase [3]; IR 240 mg QD, 16 hours post dose
  Percentage Inhibition of xanthine oxidase: 86.5%
Xanthine oxidase [3]; IR 240 mg QD, 24 hours post dose
  Percentage Inhibition of xanthine oxidase: 72.4%
Xanthine oxidase [4]; 120 mg immediate release dosage forms, other studies
  time with at least 80% inhibition of xanthine oxidase: ~14 h
Xanthine oxidase [4]; 240 mg immediate release dosage forms, further studies
  time with at least 80% inhibition of xanthine oxidase: about 22 hours
[5]; male, female, younger and elderly group of subjects
  percent free fraction of febuxostat in plasma: 0.7±0.1%
[5]; [6]
  percent fu: 0.9±0.2%
  fu (free fraction in plasma): 0.9±0.2
[5]; [7]
  percent fu: 1.2±0.2%
  fu (free fraction in plasma): 1.2±0.2
clinical; 120 mg
  Cmax: ~3900 ng/mL
clinical; 240 mg
  Cmax: 10200 ng/mL
